Assay results taken from patent publication US20090162848A1, “Noxin, a novel stress-induced gene involved in cell cycle and apoptosis” (COLD SPRING HARBOR LABORATORY, priority 2007, published 2009).

Columns and labels:
Type in all cases: cell-based, mouse
[1] = system: noxin mRNA in NIH3T3 cells; test: Q-PCR of noxin mRNA in NIH3T3 cells exposed to stress stimuli; conditions: for induction of noxin mRNA: NIH3T3 cells exposed for 16 hours, Q-PCR
Experimental: The cDNA was diluted, mixed with 2×SYBR Green PCR Master Mix (Applied Biosystems) and 0.3 μM forward and reverse primers, and amplified using the ABI PRISM 7700 Sequence Detection System (Applied Biosystems). Primers (Sigma Genosys) for noxin and β-actin were designed using Primer Express software (Applied Biosystems) assuming the Tm value of 58-60° C. and the amplicon size of 70-150 bp:
The PCR conditions for the thermal cycler were as follows: denaturation (1 cycle at 95° C. for 10 min), amplification (40 cycles at 95° C. for 15 sec and 60° C. for 1 min). During the amplification, the fluorescence of each sample in the plate was detected in real time and an amplification curve was drawn by Sequence Detection System Software (Applied Biosystems) to get the threshold cycle Cτ, the cycle number at which the curve starts to rise over the background noise. The data from noxin amplifications were normalized using the Cτ value from the β-actin set for each sample and the relative difference in the amount of noxin RNA in untreated and in stress-exposed cells was calculated.
Noxin is induced not only by NO but also by other known stress stimuli. NIH3T3 cells were exposed for 16 hours to γ-irradiation (γ-IR), UV-irradiation (UV-IR), the chemotherapeutic agent adriamycin (ADR), hydrogen peroxide (H2O2), and a mixture of cytokines (TNF-α, IFN-γ, and IL-1β) which is known to be a potent inducer of reactive oxygen and nitrogen species.

[2] = system: noxin protein in NIH3T3 cells; test: Western blot of endogenous noxin protein after stress stimuli; conditions: anti-noxin Western blot
Experimental: (§1) Western blot analysis. Cells or tissues were homogenized in the lysis buffer (10 mM Tris-HCl pH 7.5, 1 mM EDTA, 400 mM NaCl, 0.5% NP40, 5 mM NaF, 0.5 mM sodium orthovanadate, 10% glycerol, 1 mM dithiothreitol, 1 mM PMSF, 1 μg/ml aprotinin, 1 μg/ml leupeptin and 1 μg/ml pepstatin) for 20 min on ice. Following centrifugation, the soluble fraction was collected and protein concentration was determined using the BCA assay kit (Pierce). 50 μg of total protein was separated on an 8% SDS-PAGE gel and transferred to Immobilon-P membrane (Millipore Corporation) by semi-dry blotting. The membranes were incubated with anti-noxin antibody (see above) (1:1,000) followed by anti-mouse IgG or anti-rabbit IgG antibody conjugated to horseradish peroxidase (HRP) (1:10,000, Amersham). The HRP signal was detected using a chemi-luminescence detection kit (SuperSignal Femto Dura Extended Duration Substrate, Pierce) and Hyperfilm X-ray film (Amersham Biosciences).
Furthermore, in the SNAP-, cytokines-, γ-irradiation, and adriamycin-treated cells an additional band of 129 kD was evident.

noxin = test: Suppression of FLAG-noxin protein by shRNA constructs (co-transfection, Western blot); conditions: NIH3T3 cells co-transfected with shRNA, FLAG-noxin and luciferase
From the text: The role of noxin in normal cells was probed by down regulating its expression using the RNAi approach. Plasmids expressing six different noxin shRNA (FIG. 22, depicted as HPA-HPF) under control of the human U6 promoter were generated as described (Paddison et al., Proc Natl Acad Sci U.S.A. 99:1443-8 (2002)). The 6 hairpin structures correspond to the following noxin nucleotide positions: The target U6 promoter cassette DNA was amplified using a 5′-primer corresponding to the SP6 site at the 5′-end of the U6 promoter cassette and a long 3′ primer complementary to the 3′-end of the promoter and containing sequences for the noxin shRNA and a pol III termination site. The PCR fragments were subcloned into pENTR-TOPO-D vector (Invitrogen) and then transferred into pMSCV-puro vector by a clonase (Invitrogen) reaction. These six, short hairpin RNA (shRNA) constructs were generated and corresponded to different regions of noxin mRNA and their binding efficiency was compared by co-expressing them with recombinant noxin cDNA (FIG. 20A). To select shRNA constructs, six different shRNA constructs (HPA to HPF) were produced and examined for their ability to suppress the expression of noxin protein. […] After normalization, protein samples were analyzed for the expression of FLAG-noxin protein by Western blot.

NIH3T3 cells [3] = test: DNA content (PI flow cytometry) of shRNA-transfected, nocodazole-treated NIH3T3 cells; conditions: for fraction of cells in the sub-G1 population: nocodazole for 20 h
Experimental: For this experiment, NIH3T3 cells were transfected with 1 μg (HPC) or 2 μg (2×HPC) of the HPC shRNA construct, treated with nocodazole for 20 h, collected, stained with PI, and analyzed for DNA content using flow cytometry. The downregulation of noxin using this shRNA construct decreased the fraction of cells in G2/M and increased the fraction of cells in the sub-G1 population: 5.7±0.4% in control cells vs. 7.8±1.3% in cells transfected with 1 μg of HPC, and 8.0±1.7% in cells transfected with 2 μg of HPC (FIG. 20B).

NIH3T3 cells [4] = test: Nuclear morphology (Hoechst) of shRNA/YFP-actin co-transfected cells; conditions: co-transfected with YFP-actin, Hoechst stain
From the text: Panels 21A-D are images of cells that were co-transfected with the HPC or HPF shRNA constructs together with YFP-actin construct and stained with Hoechst. shRNA-transfected cells were identified by the YFP expression. […] The nuclei of cells transfected with HPF and YFP-actin or with YFP-actin alone and the nuclei of non-transfected cells had normal shape (light blue arrowheads). Scale bar: 10 μm.

noxin mRNA = test: Northern blot time course of noxin mRNA induction
Experimental: Total RNA was extracted from different adult mouse tissues and analyzed for noxin mRNA by Northern hybridization. Northern blot analysis was carried out as follows. Total RNA (10 μg) was separated by denaturing formaldehyde-agarose gel electrophoresis and transferred onto a nylon membrane (Hybond-N^+, Amersham). The membrane was pre-hybridized with hybridization buffer (0.05 M sodium phosphate buffer, 5×SSC, 4×Denhardt's solution, 1% SDS, 50% formamide, 0.1 mg/ml salmon sperm DNA, and 0.2 mg/ml yeast tRNA) for 6 h at 42° C. and hybridized with the same buffer containing 100,000 cpm/ml [α-^32P] dCTP-labeled noxin cDNA probe amplified by PCR from pFLAG-noxin. Following hybridization for 20 h at 42° C., the membrane was washed twice with 2×SSC for 5 min at room temperature, twice with 0.2×SSC for 5 min at 65° C. and twice with 1×SSC with 3% glycerol for 5 min at room temperature. The membrane was exposed for 3 days at −70° C. using X-OMAT X-ray film (Kodak).
Noxin was identified as an NO-inducible gene and the time course of its induction by the NO donor SNAP was determined. Noxin mRNA levels as determined by Northern blot started to increase 2 h after the addition of SNAP and reached maximal levels 8 h after the addition (FIG. 6A). The pattern of noxin induction by SNAP was similar to that of a p53-dependent gene mdm2. Results for β-actin are shown as a control.

[5] = system: MEFs from wild type and noxin-/- mice; test: BrdU/PI flow cytometry of MEFs released from serum arrest, with SNAP
Experimental: Since noxin can induce cell cycle arrest and, in addition, respond to various types of stress stimuli, including NO, the growth characteristics of MEFs isolated from noxin^−/− animals or their wild type (noxin^+/+) littermates were compared. MEFs from wild type and noxin^−/− mice were arrested with low serum (0.1%) culture medium for 24 h and released by adding 10% serum. Cells were either left untreated or exposed to SNAP. At the time of release, BrdU was added to the culture medium and cells were further incubated for 4, 16, or 22 h (FIG. 17, indicated). Cells were collected, stained with PI and analyzed by flow cytometry for BrdU-positive cells (FIG. 17, X-axis: PI, Y-axis: BrdU) and for cell cycle distributions (FIG. 18, X-axis: PI and Y-axis: number of cells) (Fraction P3=G1, Fraction P4=S, Fraction P5=G2/M and Fraction P6=Sub-G1 populations). […]
The growth of noxin^−/− MEFs under normal conditions (FIG. 17g-i) and after addition of SNAP (FIGS. 17j-l) were similar to that of wild type MEFs (FIG. 17a-c and FIG. 17d-f). However, the fraction of sub-G1 cells was higher in noxin-deficient (noxin^−/−) cells (Fraction P6) at each time point analyzed than in wild type (noxin^+/+) MEFs (13.8, 16.3, and 11.5 vs. 9.7, 5.1, and 3.5%, respectively, FIG. 18 fraction P6).

[6] = system: noxin protein in NIH3T3 cells; test: Subcellular localization of endogenous noxin by immunofluorescence; conditions: antibody against C-terminal region peptide
[7] = system: noxin protein in NIH3T3 cells; test: Western blot of noxin protein by cell cycle phase and cell cycle inhibitors
Experimental: as §1, with “The membranes were incubated with anti-noxin antibody (see above) (1:1,000) followed by anti-mouse IgG or anti-rabbit IgG antibody conjugated to horseradish peroxidase (HRP) (1:10,000, Amersham).” left out
The relationship between cell cycle and noxin expression was examined by determining the noxin mRNA levels in cells in various phases of the cell cycle using the methodology as follows: NIH3T3 cells, synchronized by serum starvation (DMEM with 0.5% serum for 24 h) were released from arrest by the addition of 10% serum (corresponds to the 0 h time point). […] Noxin mRNA expression was analyzed using Q-PCR 0, 4, 14, or 20 h after the addition of serum. The cell cycle phase of the cells was determined by flow cytometry in the following manner: […]

NIH3T3 cells [8] = test: BrdU incorporation (DNA synthesis) in transfected versus untransfected NIH3T3 cells; conditions: BrdU labeling for 24 h
Experimental: In addition, constructs coding for cyan fluorescent protein with a nuclear localization signal (CFP-nuc), yellow fluorescent protein fused to actin (YFP-actin), or vector construct alone were used as controls. Cells were then labeled with BrdU for 24 h and analyzed cells in situ by immunocytochemistry for BrdU and noxin (or other listed proteins) (FIG. 11A-C). In the figures, signals from anti-FLAG antibodies are seen in red; anti-BrdU antibodies are green; Hoechst 33342 (blue) was used for nuclear counter-staining. […] Recombinant protein was detected on a Western blot using the anti-FLAG antibody.

Question: Which results are given for `COc1cccc2c1C(=O)c1c(O)c3c(c(O)c1C2=O)C[C@@](O)(C(=O)CO)C[C@@H]3O[C@H]1C[C@H](N)[C@H](O)[C@H](C)O1` [adriamycin]?
Answer: induction of noxin mRNA [1]: strong induction; additional noxin band of 129 kD [2]: evident; levels of the 125 kD noxin polypeptide [2]: specifically increased

Question: Which results are given for “HPC: noxin shRNA construct, nt 1163-1191 (SEQ ID NO: 16) (DNA GTTGTCATGAAAGTAGATTGTCTGACTCT)”?
Answer: inhibition of noxin (FLAG-noxin) expression (noxin): strongest inhibition; fraction of cells in G2/M phase (NIH3T3 cells [3]; nocodazole-treated NIH3T3 cells): decreased; fraction of cells in the sub-G1 population (NIH3T3 cells [3]; transfected with 1 μg construct): 7.8±1.3%; fraction of cells in the sub-G1 population (NIH3T3 cells [3]; transfected with 2 μg construct): 8.0±1.7%; nuclear / chromatin morphology of transfected cells (NIH3T3 cells [4]): condensed chromatin structures

Question: Which results are given for `OO` [H2O2, hydrogen peroxide]?
Answer: induction of noxin mRNA [1]: strong induction; noxin mRNA level versus unstimulated cells ([1]; NIH3T3 cells, stress exposure): 13 fold; levels of the 125 kD noxin polypeptide [2]: specifically increased

Question: `CC(=O)NC(C(=O)O)C(C)(C)SN=O` (racemic) [SNAP, S-nitroso-N-acetyl-D,L-penicillamine] was tested. Which “time after addition at which noxin mRNA levels started to increase” value (noxin mRNA) did it give?
Answer: 2 h

Question: And the “time after addition at which noxin mRNA reached maximal levels” value (noxin mRNA)?
Answer: 8 h

Question: What about the “additional noxin band of 129 kD” value [2] of the same compound?
Answer: evident

Question: And the “levels of the 125 kD noxin polypeptide” value [2]?
Answer: specifically increased

Question: What about the “decrease of the fraction of dividing cells” value ([5]; MEFs released from low serum arrest, BrdU) of the same compound?
Answer: 95.5%

Question: What about the “effect on sub-G1 fraction (Fraction P6)” value ([5]; noxin+/+ or noxin-/- MEFs) of the same compound?
Answer: did not noticeably affect

Question: And the “localization of endogenous noxin protein after exposure” value [6]?
Answer: predominantly nuclear localization

Question: For `C[C@@]1(CO)[C@H](O)CC[C@@]2(C)[C@H]1CC[C@H]1C[C@@H]3C[C@@]12CC[C@]3(O)CO` [aphidicolin], which “Noxin levels in response to cell cycle inhibitors” value [7] is on record?
Answer: induced

Question: Which “Noxin levels in response to cell cycle inhibitors” value [7] does the source give for `COC(=O)Nc1nc2ccc(C(=O)c3cccs3)cc2[nH]1` [nocodazole] here?
Answer: induced

Question: What about the “cell cycle effect of nocodazole treatment” value (NIH3T3 cells [3]; NIH3T3 cells, 20 h) of the same compound?
Answer: accumulation of cells in the G2/M phase

Question: Which “inhibition of noxin (FLAG-noxin) expression” value (noxin) does the source give for “HPF: noxin shRNA construct, nt 509-537 (SEQ ID NO: 19) (DNA AAACCCTGGACAGTGGTAGAACTCAGAGC)” here?
Answer: no effect

Question: And the “nuclear / chromatin morphology of transfected cells” value (NIH3T3 cells [4])?
Answer: normal shape

Question: “p21/WAF: cdk inhibitor p21/WAF expressed from transfected plasmid” was tested. Which “fraction of BrdU-positive cells in transfected cells, % of the value for the untransfected cells” value (NIH3T3 cells [8]) did it give?
Answer: 39%
